Assay results: patent US10399959B2, “Acid-addition salt of Trk-inhibiting compound” (ONO PHARMACEUTICAL CO., LTD., priority 2014, dated 2019)
Where two headings read alike, the source gives them in different places.

Assays:
[1] = tested on: sodium monoiodoacetate-induced model rats; test: Analgesic effect on sodium monoiodoacetate-induced model rats; assay type: in vivo, rat; details: MIA rats, day 24
[2] = Test regarding solubility in artificial intestinal juice (FaSSIF); assay type: physicochemical; details: after lapsing 0.25 hours; for solubility / solubility at 0.25 h: artificial intestinal juice (FaSSIF); for solubility / solubility per free base: 37° C.; for solubility at 0.25 h: 37 °C, fassif, thermodynamic from solid
Method: About 5 mg of the present compound was weighed in a test tube, a stirrer and 5 mL of an artificial intestinal juice (FaSSIF; Reference 1: Pharmaceutical Research, Vol. 20, pp. 1674-1680, 2003, and Reference 2: Biological & Pharmaceutical Bulletin, Vol. 34, pp. 401-407, 2011) were added in the test tube, and the test tube was then hermetically sealed. The test tube was placed in a solubility test apparatus (Gilson, Quad-Z 215), and stirring was performed at 37° C. and 700 rpm. A part of the liquid in the test tube was collected after lapsing 0.25, 0.5, 1, 3, 6, and 24 hours, respectively. The collected liquid was filtered with a filter, and the filtrate was diluted to 2-fold with acetonitrile. The diluted liquid was centrifuged at 3,000 rpm for 5 minutes. A supernatant after centrifugation was used as a sample solution and calculated for solubility by means of high-performance liquid chromatography.
High-Performance Liquid Chromatography Measurement Conditions

[3] = tested on: rat NGF-induced vascular hyper permeability; test: Inhibiting effect of rat NGF-induced vascular hyper permeability; assay type: in vivo; details: 1 mg/kg oral (as free base)
Method: TrkA-inhibiting activity of the present compound was evaluated in vivo. The present compound dissolved in a medium was orally administered (adminstered volume: 5 mL/kg) to male CD(SD)IGS rats (7- to 9-week old, Charles River Laboratories Japan, Inc.) shaved on the back. A medium was orally administered (adminstered volume: 5 mL/kg) to the control and normal groups. After 12 or 14 hours of administration, 3 μg/mL of an NGF (Mouse 2.5s, Natural, Invitrogen) solution prepared in 0.1% BSA (Sigma-Aldrich)-containing saline was intracutaneously administered (adminstered volume; 50 μL/site) at 3 sites on the back of animals under halothane anesthesia. For the normal group, 0.1% BSA-containing saline was intracutaneously administered (adminstered volume; 50 μL/site) at 3 sites on the back. Immediately after intracutaneous administration, 1% Evans Blue (Tokyo Chemical Industriy Co., Ltd.) dissolved in saline was administered intravenously from tail (adminstered volume: 3 mL/kg). After 10 minutes of administration, the animals were sacrificed by bleeding due to incision of the abdominal aorta. The sites of intracutaneous administration on the back (3 sites) were excised, and the skin samples were respectively transferred to the wells in a 48-well plate (Asahi Glass Co., Ltd.). […] The formamide extraction solution (200 μL) was transferred to a 96-well plate, and the absorbance (wavelength: 620 nm) of Evans Blue extracted in formamide was measured on an absorbance microplate reader (SpectraMAX 190, Molecular Devices Japan, K.K.). Standard samples of Evans Blue dissolved in formamide (0, 0.78, 1.56, 3.13, 6.25, 12.5, 25, and 50 μg/mL) were measured at the same time for the absorbance (wavelength: 620 nm), thereby preparing a calibration curve. Based on the calibration curve and the absorbances of the respective samples, the concentrations of Evans Blue in each sample was calculated. […] The rate of inhibition for rat NGF-induced vascular hyper permeability of the present compound was calculated according to the following Equation 4. […]

[4] = FaSSIF, salt value converted to the corresponding free base, read-out: solubility per free base
[5] = present compound oral twice a day over 10 days, then 3 hours before measurement, dose (0.1, 0.3 or 1 mg/kg) not given
[6] = 14 hours before administration of NGF
[7] = FaSSIF, salt value converted to the corresponding free base, Methanesulfonate
[8] = as the substance itself (salt or free base), Methanesulfonate

## CN1CC[C@]23c4c5ccc(O)c4O[C@H]2[C@@H](O)C=C[C@H]3[C@H]1C5 [morphine, reference compound]
[1]; morphine 3 mg/kg subcutaneous one hour before measurement
  percent improvement (right hind limb weight load ratio): 54%

## CS(=O)(=O)c1ccc(C(F)(F)F)cc1NC(=O)Nc1cnc(Oc2ccc(-c3cc(Cl)cnc3N)cc2)nc1 [p-toluenesulfonate of Compound (I), 1-{2-[4-(2-amino-5-chloro-3-pyridinyl)phenoxy]-5-pyrimidinyl}-3-[2-(methylsulfonyl)-5-(trifluoromethyl)phenyl]urea p-toluenesulfonate]
[2]; as the substance itself (salt or free base), p-toluenesulfonate
  solubility: 96 µg/mL
[2]; [4]
  solubility at 0.25 h: 74 µg/mL

## COc1cccc(C2(O)CCCCC2CN(C)C)c1 (stereo not drawn) [tramadol, reference compound]
[1]; tramadol 10 mg/kg subcutaneous one hour before measurement
  percent improvement (right hind limb weight load ratio): 43%

## Nc1ncc(F)cc1-c1ccc(Oc2ncc(NC(=O)Nc3cc(C(F)(F)F)ccc3-c3cccnc3)cn2)cc1 [dibenzenesulfonate of Compound (II), 1-{2-[4-(2-amino-5-fluoropyridin-3-yl)phenoxy]pyrimidin-5-yl}-3-[2-(pyridin-3-yl)-5-(trifluoromethyl)phenyl]urea dibenzenesulfonate]
[2]; FaSSIF, salt value converted to the corresponding free base, dibenzenesulfonate
  solubility per free base: 52 µg/mL
[2]; as the substance itself (salt or free base), dibenzenesulfonate
  solubility: 81 µg/mL

## Nc1ncc(F)cc1-c1ccc(Oc2ncc(NC(=O)Nc3cc(C(F)(F)F)ccc3-c3cccnc3)cn2)cc1 [di(p-toluenesulfonate) of Compound (II), 1-{2-[4-(2-amino-5-fluoropyridin-3-yl)phenoxy]pyrimidin-5-yl}-3-[2-(pyridin-3-yl)-5-(trifluoromethyl)phenyl]urea di(p-toluenesulfonate)]
[2]; as the substance itself (salt or free base), di(p-toluenesulfonate)
  solubility: 99 µg/mL
[2]; [4]
  solubility at 0.25 h: 61 µg/mL
[3]; 12 hours before administration of NGF
  inhibition rate of rat NGF-induced vascular hyper permeability: about 78%
[1]; [5]
  percent improvement (right hind limb weight load ratio): about 53%

## CS(=O)(=O)c1ccc(C(F)(F)F)cc1NC(=O)Nc1cnc(Oc2ccc(-c3cc(Cl)cnc3N)cc2)nc1.Cl [hydrochloride of Compound (I), 1-{2-[4-(2-amino-5-chloro-3-pyridinyl)phenoxy]-5-pyrimidinyl}-3-[2-(methylsulfonyl)-5-(trifluoromethyl)phenyl]urea Hydrochloride]
[3]; [6]
  inhibition rate of rat NGF-induced vascular hyper permeability: about 100%
[1]; [5]
  percent improvement (right hind limb weight load ratio): about 54%

## CS(=O)(=O)c1ccc(C(F)(F)F)cc1NC(=O)Nc1cnc(Oc2ccc(-c3cc(Cl)cnc3N)cc2)nc1 [methanesulfonate of Compound (I), 1-{2-[4-(2-amino-5-chloro-3-pyridinyl)phenoxy]-5-pyrimidinyl}-3-[2-(methylsulfonyl)-5-(trifluoromethyl)phenyl]urea Methanesulfonate]
[2]; [7]
  solubility per free base: 47 µg/mL
[2]; [8]
  solubility: 55 µg/mL

## Nc1ncc(Cl)cc1-c1ccc(Oc2ncc(NC(=O)Nc3cc(C(F)(F)F)ccc3-n3cccn3)cn2)cc1 [p-toluenesulfonate of Compound (III), 1-(2-(1H-pyrazol-1-yl)-5-(trifluoromethyl)phenyl)-3-(2-(4-(2-amino-5-chloropyridin-3-yl)phenoxy)pyrimidin-5-yl)urea p-Toluenesulfonate]
[2]; [4]
  solubility at 0.25 h: 42 µg/mL
[2]; as the substance itself (salt or free base), read-out: solubility
  solubility at 0.25 h: 55 µg/mL

## Nc1ncc(Cl)cc1-c1ccc(Oc2ncc(NC(=O)Nc3cc(C(F)(F)F)ccc3-n3cccn3)cn2)cc1 [methanesulfonate of Compound (III), 1-(2-(1H-pyrazol-1-yl)-5-(trifluoromethyl)phenyl)-3-(2-(4-(2-amino-5-chloropyridin-3-yl)phenoxy)pyrimidin-5-yl)urea Methanesulfonate]
[2]; [7]
  solubility per free base: 45 µg/mL
[2]; [8]
  solubility: 53 µg/mL
[3]; [6]
  inhibition rate of rat NGF-induced vascular hyper permeability: about 97%
[1]; [5]
  percent improvement (right hind limb weight load ratio): about 61%

## CS(=O)(=O)c1ccc(C(F)(F)F)cc1NC(=O)Nc1cnc(Oc2ccc(-c3cc(Cl)cnc3N)cc2)nc1 [Compound (I), 1-{2-[4-(2-amino-5-chloro-3-pyridinyl)phenoxy]-5-pyrimidinyl}-3-[2-(methylsulfonyl)-5-(trifluoromethyl)phenyl]urea]
[2]; as the substance itself (salt or free base)
  solubility: 7 µg/mL
